Patent US20140271765A1 (priority 2013, published 2014)
“And” between values parts separate entries of the source, which are not always exact repeats. Equal values may be shown once. Read-outs that look alike come from different tables or passages of the source.

Key:
[1] = in vivo
[2] = buprenorphine
[3] = human, in vivo
[4] = dog, in vivo
[5] = 2 implants, individual subjects

## CO[C@@]12CC[C@@]3(C[C@@H]1[C@](C)(O)C(C)(C)C)[C@H]1Cc4ccc(O)c5c4[C@@]3(CCN1CC1CC1)[C@H]2O5 [buprenorphine]
[1]; human
  shortest half-life during the plateau phase: 25 weeks
[1]
  Cave from Day 21 to removal, higher in the higher dose group as compared with the lower dose group: 93%
  Cmax, higher in the higher dose group as compared with the lower dose group: 62%
  reduction in buprenorphine concentrations from Day 17 to removal: ≤ 50%
  time to reach plateau phase: ≤ 21 days
[2]; 2 implants, Mean
  Model predicted concentration at removal: 330.7 pg/mL
  Time from implant to reaching 2x last concentration: 242.0 h
  α-Half Life: 12.75 h
  β-Half Life: 133.1 h
  γ-Half life: 160.7 weeks
[2]; 2 implants, Median
  Model predicted concentration at removal: 340.0 pg/mL
  Time from implant to reaching 2x last concentration: 231.0 h
  α-Half Life: 7.55 h
  β-Half Life: 124.0 h
  γ-Half life: 77.9 weeks
[2]; [5]
  Model predicted concentration at removal: 263 pg/mL and 342 pg/mL (2×) and 252 pg/mL and 447 pg/mL and 338 pg/mL
  Time from implant to reaching 2x last concentration: 396 h and 259 h and 313 h and 180 h and 101 h and 203 h
  α-Half Life: 7.55 h and 4.17 h and 115 h and 39.7 h and 2.94 h and 9.41 h
  β-Half Life: 124 h and 206 h and 3578 h and 174 h and 52.3 h and 109 h
  γ-Half life: 29.9 weeks and 457 weeks and 35.7 weeks and 120 weeks
[2]; 4 implants, Mean
  Model predicted concentration at removal: 6.11 pg/mL
  Time from implant to reaching 2x last concentration: 715.7 h
  α-Half Life: 3230 h
  β-Half Life: 15.95 h
[2]; 4 implants, Median
  Model predicted concentration at removal: 5.76 pg/mL
  Time from implant to reaching 2x last concentration: 706.5 h
  α-Half Life: 3020 h
  β-Half Life: 15.75 h
[3]
  duration of plateau of therapeutically-effective plasma level: at least 24 weeks
  time until plasma concentration reaches a plateau: about a few days to about two weeks
[4]
  changes in plasma buprenorphine exposure with external heat: No consistent changes
  mean steady state concentration (Css1): 3.90 ng/mL
  mean steady-state concentration (Css3): 3.86 ng/mL
  mean steady-state plasma buprenorphine concentration (Css2): 4.37 ng/mL
  steady state concentration (Css1), range: 3.01 to 4.77 ng/mL
  steady-state concentration (Css3), range: 2.73 to 4.84 ng/mL
  steady-state plasma buprenorphine concentration (Css2), range: 2.61 to 5.42 ng/mL
